Reference: patent US7994185B2, “Benzene sulfonamide thiazole and oxazole compounds” (Glaxo Smith Kline LLC, priority 2008, dated 2011)
Structures can show the parent of a compound that is named as a salt.

The compounds below were run against T1, BRAFV600E full-length (amino acids 2-766) (Homo sapiens, UniProt P15056, V600E) (assay: B-Raf Accelerated MEK ATPase assay (BRAMA)). Conditions: B-Raf Activity, Table 1a; highest pIC50 for the one or more runs, categorized.
T1 construct: His6-tagged BRAFV600E full-length (amino acids 2-766); His6; made in house; host or cells: baculovirus expression system (insect cells)
T1 sequence (P15056 2-766 V600E): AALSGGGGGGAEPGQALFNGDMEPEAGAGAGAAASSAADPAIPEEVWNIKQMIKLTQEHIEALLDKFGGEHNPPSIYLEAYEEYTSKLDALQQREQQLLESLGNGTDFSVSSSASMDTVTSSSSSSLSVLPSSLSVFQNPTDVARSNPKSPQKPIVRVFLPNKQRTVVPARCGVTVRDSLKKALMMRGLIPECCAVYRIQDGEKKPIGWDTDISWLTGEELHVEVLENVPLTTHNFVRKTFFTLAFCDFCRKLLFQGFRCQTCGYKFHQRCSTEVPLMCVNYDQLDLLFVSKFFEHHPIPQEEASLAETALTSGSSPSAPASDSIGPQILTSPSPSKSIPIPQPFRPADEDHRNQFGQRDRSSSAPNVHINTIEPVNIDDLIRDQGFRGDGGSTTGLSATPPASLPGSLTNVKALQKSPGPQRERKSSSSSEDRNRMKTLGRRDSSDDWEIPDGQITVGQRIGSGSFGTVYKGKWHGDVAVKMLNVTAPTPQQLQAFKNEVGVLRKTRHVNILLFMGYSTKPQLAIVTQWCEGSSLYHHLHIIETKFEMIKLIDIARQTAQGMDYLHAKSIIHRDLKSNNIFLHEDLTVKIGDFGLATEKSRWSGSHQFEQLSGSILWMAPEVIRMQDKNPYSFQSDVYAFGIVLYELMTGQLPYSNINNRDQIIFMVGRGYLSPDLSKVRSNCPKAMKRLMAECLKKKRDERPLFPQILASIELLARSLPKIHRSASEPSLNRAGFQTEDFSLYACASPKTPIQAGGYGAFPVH
Assay type: biochemical
Method: Compounds of the present invention were tested for B-Raf protein serine kinase inhibitory activity in a B-Raf Accelerated MEK ATPase assay (BRAMA). […] The BRAMA assay is a high sensitivity assay which measures an intrinsic MEK-mediated ATP hydrolysis uncoupled from downstream ERK phosphorylation by coupling the formation of ADP to NADH oxidation through the enzymes pyruvate kinase and lactate dehydrogenase. When ADP production is initiated by addition of catalytic amounts of an activated Raf enzyme and non-phosphorylated MEK, one observes robust ADP production concomitant with Raf-mediated phosphorylation of MEK. The method is disclosed in: C. Rominger, M. Schaber, E. May. Assay for B-Raf Activity Based on Intrinsic MEK ATPase Activity.

Row | SMILES | IC50
1 | CC(C)c1nc(-c2cccc(NS(=O)(=O)c3cccc(F)c3)c2)c(-c2ccnc(NCCCN(C)C)n2)s1 [Example 88, N-{3-[5-(2-{[3-(Dimethylamino)propyl]amino}-4-pyrimidinyl)-2-(1-methylethyl)-1,3-thiazol-4-yl]phenyl}-3-fluorobenzenesulfonamide] | < 100 nM
2 | Nc1nccc(-c2scnc2-c2cccc(NS(=O)(=O)c3c(F)cccc3F)c2)n1 [Example 114, N-{3-[5-(2-Amino-4-pyrimidinyl)-1,3-thiazol-4-yl]phenyl}-2,6-difluorobenzenesulfonamide] | 100 to 1000 nM
3 | CC(C)c1nc(-c2ccc(F)c(NS(=O)(=O)c3c(F)cccc3F)c2)c(-c2ccnc(NCCS(C)(=O)=O)n2)s1 [Example 8, 2,6-Difluoro-N-{2-fluoro-5-[2-(1-methylethyl)-5-(2-{[2-(methylsulfonyl)ethyl]amino}-4-pyrimidinyl)-1,3-thiazol-4-yl]phenyl}benzenesulfonamide] | < 100 nM

Same assay, conditions: B-Raf pIC50, Table 1b; later runs, average pIC50 for the one or more runs, categorized

Row | SMILES | IC50
4 | Cc1nccc(-c2sc(C3(C)CCNCC3)nc2-c2cccc(NS(=O)(=O)c3ccoc3)c2F)n1 [Example 320, N-{2-fluoro-3-[2-(4-methyl-4-piperidinyl)-5-(2-methyl-4-pyrimidinyl)-1,3-thiazol-4-yl]phenyl}-3-furansulfonamide] | ≤ 3.16 nM
5 | Cn1ccc(S(=O)(=O)Nc2cccc(-c3nc(C4CCOCC4)sc3-c3ccnc(N)n3)c2F)n1 [Example 289, N-{3-[5-(2-amino-4-pyrimidinyl)-2-(tetrahydro-2H-pyran-4-yl)-1,3-thiazol-4-yl]-2-fluorophenyl}-1-methyl-1H-pyrazole-3-sulfonamide hydrochloride] | 31.6 to 1000 nM
6 | O=S(=O)(Nc1cccc(-c2nc(C3CCOCC3)sc2-c2ccnc(NC3CCOCC3)n2)c1F)c1ccoc1 [Example 305, N-(2-fluoro-3-{2-(tetrahydro-2H-pyran-4-yl)-5-[2-(tetrahydro-2H-pyran-4-ylamino)-4-pyrimidinyl]-1,3-thiazol-4-yl}phenyl)-3-furansulfonamide] | ≤ 3.16 nM
7 | O=S(=O)(Nc1cccc(-c2nc(C3CCOCC3)sc2-c2ccnc(NCCN3CCOCC3)n2)c1F)c1ccoc1 [Example 307, N-{2-fluoro-3-[5-(2-{[2-(4-morpholinyl)ethyl]amino}-4-pyrimidinyl)-2-(tetrahydro-2H-pyran-4-yl)-1,3-thiazol-4-yl]phenyl}-3-furansulfonamide] | ≤ 3.16 nM
8 | CC(C)(C)c1nc(-c2cccc(NS(=O)(=O)c3c(F)cccc3F)c2F)c(-c2ccnc(NCCO)n2)s1 [Example 293, N-[3-(2-(1,1-dimethylethyl)-5-{2-[(2-hydroxyethyl)amino]-4-pyrimidinyl}-1,3-thiazol-4-yl)-2-fluorophenyl]-2,6-difluorobenzenesulfonamide] | ≤ 3.16 nM
9 | Nc1nccc(-c2scnc2-c2cccc(NS(=O)(=O)c3c(F)cccc3F)c2)n1 [Example 114, N-{3-[5-(2-Amino-4-pyrimidinyl)-1,3-thiazol-4-yl]phenyl}-2,6-difluorobenzenesulfonamide] | 31.6 to 1000 nM
10 | CC1(c2nc(-c3cccc(NS(=O)(=O)c4ccoc4)c3F)c(-c3ccnc(N)n3)s2)CCNCC1 [Example 319, N-{3-[5-(2-amino-4-pyrimidinyl)-2-(4-methyl-4-piperidinyl)-1,3-thiazol-4-yl]-2-fluorophenyl}-3-furansulfonamide] | ≤ 3.16 nM
11 | CC(C)(C)c1nc(-c2c(F)ccc(NS(=O)(=O)c3cc(F)ccc3F)c2F)c(-c2ccncn2)s1 [Example 260, N-{3-[2-(1,1-dimethylethyl)-5-(4-pyrimidinyl)-1,3-thiazol-4-yl]-2,4-difluorophenyl}-2,5-difluorobenzenesulfonamide] | ≤ 3.16 nM
12 | CC(C)(C)c1nc(-c2cccc(NS(=O)(=O)c3c(F)cccc3F)c2F)c(-c2ccnc(NCCC#N)n2)s1 [Example 292, N-{3-[5-{2-[(2-cyanoethyl)amino]-4-pyrimidinyl}-2-(1,1-dimethylethyl)-1,3-thiazol-4-yl]-2-fluorophenyl}-2,6-difluorobenzenesulfonamide] | ≤ 3.16 nM
13 | Cc1nccc(-c2sc(C(C)(C)N)nc2-c2cccc(NS(=O)(=O)c3c(F)cccc3F)c2F)n1 [Example 310, N-{3-[2-(1-amino-1-methylethyl)-5-(2-methyl-4-pyrimidinyl)-1,3-thiazol-4-yl]-2-fluorophenyl}-2,6-difluorobenzenesulfonamide] | 31.6 to 1000 nM
14 | O=S(=O)(Nc1cccc(-c2nc(C3CCOCC3)sc2-c2ccnc(NCCN3CCCC3)n2)c1F)c1ccoc1 [Example 306, N-{2-fluoro-3-[5-(2-{[2-(1-pyrrolidinyl)ethyl]amino}-4-pyrimidinyl)-2-(tetrahydro-2H-pyran-4-yl)-1,3-thiazol-4-yl]phenyl}-3-furansulfonamide] | ≤ 3.16 nM

Same assay, conditions: Table 1a; highest pIC50 for the one or more runs, categorized; read-out: B-Raf Activity

Row | SMILES | IC50
15 | CC(C)c1nc(-c2ccc(F)c(NS(=O)(=O)c3c(F)cccc3F)c2)c(-c2ccnc(NCCN3CCOCC3)n2)s1 [Example 171] | 100 to 1000 nM

Same assay, conditions: Table 1b; later runs, average pIC50 for the one or more runs, categorized; read-out: B-Raf pIC50 (converted)

Row | IC50 | SMILES
16 | 3.16 to 31.6 nM | Cc1nccc(-c2sc(C3CCOCC3)nc2-c2cccc(NS(=O)(=O)c3c(F)cccc3F)c2F)n1 [Example 315, 2,6-difluoro-N-{2-fluoro-3-[5-(2-methyl-4-pyrimidinyl)-2-(tetrahydro-2H-pyran-4-yl)-1,3-thiazol-4-yl]phenyl}benzenesulfonamide]
17 | 3.16 to 31.6 nM | Cc1nccc(-c2sc(C3CCOCC3)nc2-c2cccc(NS(=O)(=O)c3ccoc3)c2F)n1 [Example 314, N-{2-fluoro-3-[5-(2-methyl-4-pyrimidinyl)-2-(tetrahydro-2H-pyran-4-yl)-1,3-thiazol-4-yl]phenyl}-3-furansulfonamide]
18 | 3.16 to 31.6 nM | Nc1nccc(-c2sc(C3CCOCC3)nc2-c2cccc(NS(=O)(=O)c3ccccn3)c2F)n1 [Example 279, N-{3-[5-(2-amino-4-pyrimidinyl)-2-(tetrahydro-2H-pyran-4-yl)-1,3-thiazol-4-yl]-2-fluorophenyl}-2-pyridinesulfonamide]
19 | 3.16 to 31.6 nM | Cc1nccc(-c2sc(C(C)(C)CO)nc2-c2cccc(NS(=O)(=O)c3c(F)cccc3F)c2F)n1 [Example 316, 2,6-difluoro-N-{2-fluoro-3-[2-(2-hydroxy-1,1-dimethylethyl)-5-(2-methyl-4-pyrimidinyl)-1,3-thiazol-4-yl]phenyl}benzenesulfonamide]
20 | 3.16 to 31.6 nM | CCc1nc(-c2cccc(NS(=O)(=O)c3c(F)cccc3F)c2F)c(-c2ccnc(N)n2)s1 [Example 257, N-{3-[5-(2-amino-4-pyrimidinyl)-2-ethyl-1,3-thiazol-4-yl]-2-fluorophenyl}-2,6-difluorobenzenesulfonamide]
21 | 3.16 to 31.6 nM | Cc1nccc(-c2sc(C3CCNCC3)nc2-c2cccc(NS(=O)(=O)c3c(F)cccc3F)c2F)n1 [Example 321, 2,6-difluoro-N-{2-fluoro-3-[5-(2-methyl-4-pyrimidinyl)-2-(4-piperidinyl)-1,3-thiazol-4-yl]phenyl}benzenesulfonamide]
22 | 3.16 to 31.6 nM | O=C(NCc1nccc(-c2sc(N3CCOCC3)nc2-c2cccc(NS(=O)(=O)c3cc(F)ccc3F)c2F)n1)C1CCCC1 [Example 274, N-({4-[4-(3-{[(2,5-difluorophenyl)sulfonyl]amino}-2-fluorophenyl)-2-(4-morpholinyl)-1,3-thiazol-5-yl]-2-pyrimidinyl}methyl)cyclopentanecarboxamide]
23 | 3.16 to 31.6 nM | CC(C)(N)c1nc(-c2cccc(NS(=O)(=O)c3c(F)cccc3F)c2F)c(-c2ccnc(N)n2)s1 [Example 313, N-{3-[2-(1-amino-1-methylethyl)-5-(2-amino-4-pyrimidinyl)-1,3-thiazol-4-yl]-2-fluorophenyl}-2,6-difluorobenzenesulfonamide]

Row | SMILES | IC50
24 | CC(C)c1nc(-c2cccc(NS(=O)(=O)c3cccc(F)c3)c2)c(-c2ccnc(NCCCN(C)C)n2)s1 [Example 88, N-{3-[5-(2-{[3-(Dimethylamino)propyl]amino}-4-pyrimidinyl)-2-(1-methylethyl)-1,3-thiazol-4-yl]phenyl}-3-fluorobenzenesulfonamide] | 3.16 to 31.6 nM
25 | CC(C)c1nc(-c2ccc(F)c(NS(=O)(=O)c3c(F)cccc3F)c2)c(-c2ccnc(NCCS(C)(=O)=O)n2)s1 [Example 8, 2,6-Difluoro-N-{2-fluoro-5-[2-(1-methylethyl)-5-(2-{[2-(methylsulfonyl)ethyl]amino}-4-pyrimidinyl)-1,3-thiazol-4-yl]phenyl}benzenesulfonamide] | 3.16 to 31.6 nM
